The text below walks through data of patent EP0731088B1, “Retroviral protease inhibitors” (MONSANTO COMPANY, priority 1990, dated 1992).

The target in one experiment is T1, HIV protease (Human immunodeficiency virus type 1 group M subtype B, UniProt P04585).
T1 construct: HIV protease is diluted in the assay buffer to a final enzyme concentration of 12.3 nanomolar, based on a molecular weight of 10,780
The experiment in a line: HIV protease enzyme assay (fluorogenic substrate 2-aminobenzoyl-Ile-Nle-Phe(p-NO2)-Gln-ArgNH2). As to conditions: substrate 80 µM, enzyme 12.3 nanomolar, pH 6.4, ambient temperature. The class given is biochemical. An excerpt: The compounds of the present invention are effective HIV protease inhibitors. Utilizing an enzyme assay as described below, the compounds set forth in the examples herein disclosed inhibited the HIV enzyme. The preferred compounds of the present invention and their calculated IC50 (inhibiting concentration 50%, i.e., the concentration at which the inhibitor compound reduces enzyme activity by 50%) values are shown in Table 18. The enzyme method is described below. The substrate is 2-aminobenzoyl-Ile-Nle-Phe(p-NO2)-Gln-ArgNH2. The positive control is MVT-101 (Miller, M. et al, Science, 246, 1149 (1989)] The assay conditions are as follows: Assay buffer: • 20 mM sodium phosphate, pH 6.4 • 20% glycerol • 1 mM EDTA • 1 mM DTT • 0.1% CHAPS
The above described substrate is dissolved in DMSO, then diluted 10 fold in assay buffer. Final substrate concentration in the assay is 80 µM.
HIV protease is diluted in the assay buffer to a final enzyme concentration of 12.3 nanomolar, based on a molecular weight of 10,780.
The final concentration of DMSO is 14% and the final concentration of glycerol is 18%. […] The increase in fluorescence is monitored at 4 time points (0, 8, 16 and 24 minutes) at ambient temperature. […]

A further experiment deals with HIV-1. The experiment in a line: CEM cell assay: HIV inhibition in acutely infected cells, tetrazolium (MTT) based colorimetric assay. The note with it: Table 19; test concentration not given; CEM cells infected with HIV-1, 7 days. The protocol:
The effectiveness of the compounds listed in Table 19 were determined in the above-described enzyme assay and in a CEM cell assay.
Methods 20, 309-321 (1988).

The molecule `CC(C)CCN(C[C@@H](O)[C@H](Cc1ccccc1)NC(=O)[C@H](CC(N)=O)NC(=O)c1ccc2ccccc2n1)C(=O)CC(C)(C)C` (relative stereo) [Compound 1, Butanediamide, N^1-[3-[[[(2,2-dimethyl)propyl]carbonyl](3-methylbutyl)amino]-2-hydroxy-1-(phenylmethyl)propyl]-2-[(2-quinolinylcarbonyl)amino]-, [1S-[1R*(2R*),2S*]]] displayed an IC50 at HIV protease of 21 nM. Besides, in the experiment on HIV-1, the Inhibition is reported as 100%. On to `CCCCC(=O)N(CC1CCCCC1)C[C@@H](O)[C@H](Cc1ccccc1)NC(=O)[C@H](CC(N)=O)NC(=O)OCc1ccccc1` (relative stereo) [Compound 2, Butanediamide, N^1-[3-[[butylcarbonyl](cyclohexylmethyl)amino]-2-hydroxy-1-(phenylmethyl)propyl]-2-[(phenylmethyloxy)carbonyl)amino]-, [1S-[1R*(2R*),2S*]]], for which, at HIV protease, it took 696 nM to reach half-maximal inhibition (IC50).

The term IC50 denotes the midpoint of a concentration-inhibition curve. A high value points to weaker potency in that assay. In general, Inhibition refers to the relative decrease from the control value, in per cent.
